Experimental findings from PubChem BioAssay AID1549 (Sanford-Burnham Center for Chemical Genomics, 2009) are described below.

Each structure is given as a SMILES string. Calls of active or inactive are those of the source. The rule behind the calls is not given here.

The target in this assay is Influenza A virus M2 proton channel (A/TW/4845/1999 H1N1). The assay is described as follows: NMR binding screen, influenza A virus M2 proton channel, Kd (AID 1549). The settings on record: M2 protein.
`O=C1CN(C(=O)c2ccccc2F)c2ccccc2N1`: the Kd was > 4 mM (inactive).
Take `CCCC(=O)N1CCSCC1`: the Kd was > 4 mM (inactive).
Regarding `CNC(=O)Cn1c(=O)n(C)c2ccccc21`, the Kd was > 4 mM (inactive).
In the case of `NC1=NN(c2ccccc2)C(=O)C1`, the Kd was > 4 mM (inactive).
The result for `CC(=O)OC[C@H]1O[C@@H](Oc2cc(OC(C)=O)c3c(=O)cc(-c4ccc(OC(C)=O)cc4)oc3c2)[C@H](OC(C)=O)[C@@H](OC(C)=O)[C@@H]1OC(C)=O` reads > 4 mM (inactive); that for `Nc1cccc(S(=O)(=O)N2CCCCC2)c1`, > 4 mM (inactive).
The result for `O=S1(=O)NC(=NCc2ccco2)c2ccccc21` reads > 4 mM (inactive); that for `c1cncc(Cn2cccc2)c1`, > 4 mM (inactive); that for `Oc1ccccc1N=Cc1cccnc1`, > 4 mM (inactive).
Regarding `O=C(CSc1ncnc2ccccc12)NCCCO`, the Kd was > 4 mM (inactive).
For `Cc1nc(-c2cnccn2)sc1C(=O)O`, the Kd was > 4 mM (inactive).
In the case of `Clc1ccccc1OCc1nc(-c2ccncc2)no1` it was > 4 mM (inactive); in that of `CNC(=O)COc1cccc2c1CCNC2=O`, > 4 mM (inactive); in that of `O=C(NCc1ccccc1)c1ccc[n+]([O-])c1`, > 4 mM (inactive).
In the case of `Cc1[nH]c2ccccc2c1CN(C)C` it was > 4 mM (inactive); in that of `CNC(=S)Nc1ccc2c(c1)OCO2`, > 4 mM (inactive); in that of `Cc1cccc(N2CCN(C(=O)c3ccncc3)CC2)c1C`, > 4 mM (inactive).
For the compound `CC(=O)Nc1ccc(NC(=O)N2CCOCC2)cc1`, the Kd is > 4 mM (inactive).
The result for `O=C(Nc1ccccc1N1CCCC1)c1cccnc1` reads > 4 mM (inactive); that for `Cc1onc(-c2c(Cl)cccc2Cl)c1C(N)=O`, > 4 mM (inactive); that for `NC(=NCCC[C@H](N)C(=O)O)NC(CCC(=O)O)C(=O)O` (stereo partly specified), > 4 mM (inactive).
In the case of `CC1C[C@H]2CC(=O)[C@H]3CCCN4CCC[C@H]2[C@]34C1` (stereo partly specified), the Kd is > 4 mM (inactive).
The result for `COc1ccc2c(c1)OC/C(=C/c1ccc(O)c(O)c1)C2=O` reads > 4 mM (inactive); that for `CCCCCC1C(=O)CCC1CC(=O)O` (stereo unspecified), > 4 mM (inactive).
Take `O=C1CNc2cc(C(=O)O)ccc2N1`: the Kd is > 4 mM (inactive).
As to `Cc1ccc(-c2nc(-c3cccnc3)no2)c(C)c1`, the Kd was > 4 mM (inactive).
The result for `O=c1c(-c2ccccc2)coc2cc(O)cc(O)c12` reads > 4 mM (inactive).
The result for `Cc1ccc2cc(CO)ccc2n1` reads > 4 mM (inactive).
In the case of `C[C@@H]1O[C@@H](O[C@H]2[C@H](Oc3cc(O)c4c(=O)cc(-c5ccc(O)cc5)oc4c3)O[C@H](CO)[C@@H](O)[C@@H]2O)[C@H](O)[C@H](O)[C@H]1O` it was > 4 mM (inactive).
Regarding `Cc1occc1C(=O)Nc1sccc1C(N)=O`, the Kd was > 4 mM (inactive).
For `CC(=O)Oc1ccc(-c2nc(-c3cccnc3)no2)cc1`, the Kd was > 4 mM (inactive).
With `Nc1ncnc2nc[nH]c12`, the Kd is > 4 mM (inactive).
With `O=C(O)c1onc2ccccc12`, the Kd was > 4 mM (inactive).
For `COC(=O)[C@@H]1OC(=O)C2OC23[C@@]1(C)CCC1[C@]2(C)C(C[C@H](O)[C@]13C)C(C)(C)[C@H](OC(C)=O)C[C@@H]2OC(C)=O` (stereo partly specified), the Kd is > 4 mM (inactive).
The result for `Cc1oc2nc3c(c(=O)[nH]c(=O)n3C)n2c1C` reads > 4 mM (inactive).
Regarding `O=C(O)C1CC(=O)N(Cc2ccc(F)cc2)C1` (stereo unspecified), the Kd is > 4 mM (inactive).
As to `COc1ccc(C2CC(=O)c3ccc(OC)cc3O2)cc1` (stereo unspecified), the Kd is > 4 mM (inactive).
The result for `Oc1cc2c(cc1O)C1c3ccc(O)c(O)c3OCC1(O)C2` (stereo unspecified) reads > 4 mM (inactive).
In the case of `Cc1nc2ccccc2c(=O)n1/N=C/c1ccco1` it was > 4 mM (inactive).
In the case of `CCCCCCCCCCCCCc1ccco1` it was > 4 mM (inactive); in that of `CC1CCN(C(=S)c2ccccc2O)CC1`, > 4 mM (inactive).
As for `Cc1cc(-c2ccc(Cl)cc2)n2nc(N)nc2n1`, the Kd is > 4 mM (inactive).
In the case of `CC(=O)Nc1cccs1` it was > 4 mM (inactive).
In the case of `COc1ccc(C2CC(=O)NN2)cc1OC1CCCC1` (stereo unspecified) it was > 4 mM (inactive); in that of `COc1ccc2c(c1)[n+](=O)c(C(C)=O)c(C)n2[O-]`, > 4 mM (inactive); in that of `COCCn1c(C)cc(O)cc1=O`, > 4 mM (inactive).
As for `Cc1cc(C(=O)Nc2nnc(C(F)(F)F)s2)no1`, the Kd is > 4 mM (inactive).
The result for `Cc1ccc(C)c(C(=O)NCc2ccncc2)c1` reads > 4 mM (inactive).
The result for `CO[C@H]1[C@@H](O)[C@@H](C)O[C@H](O[C@H]2CCC3(C)C4CCC5(C)[C@@H](C6=CC(=O)OC6)CC[C@]5(O)[C@@H]4CC[C@]3(O)C2)[C@@H]1O` (stereo partly specified) reads > 4 mM (inactive); that for `Cc1ccc(CN2CCNC(=O)C2CC(=O)O)o1` (stereo unspecified), > 4 mM (inactive); that for `O=C(CN1CCOCC1)Nc1cccc(Br)c1`, > 4 mM (inactive).
The result for `CCC(/C=C/[C@@H](C)[C@H]1CCC2C3CC=C4C[C@@H](O)CC[C@]4(C)C3CC[C@@]21C)C(C)C` (stereo partly specified) reads > 4 mM (inactive).
For `Cc1cc(SCC(=O)Nc2nccs2)nc(=O)[nH]1`, the Kd is > 4 mM (inactive).
Regarding `CN1CN(Cc2ccccc2)CN/C1=N/[N+](=O)[O-]`, the Kd is > 4 mM (inactive).
The result for `Cc1cc(C)n(S(=O)(=O)c2cc(C)c(C)cc2C)n1` reads > 4 mM (inactive).
The result for `O=C(O)CNc1ncnc2nc[nH]c12` reads > 4 mM (inactive); that for `O=C(O)c1cccc2nsnc12`, > 4 mM (inactive); that for `O=C1NCCCC1C(=O)N/N=C/c1ccccc1` (stereo unspecified), > 4 mM (inactive).
Regarding `COC(=O)[C@@H]1OC(=O)C2OC23[C@@]1(C)CCC1[C@]2(C)C(C[C@@H](O)[C@]13C)C(C)(C)[C@H](OC(C)=O)C[C@@H]2OC(C)=O` (stereo partly specified), the Kd was > 4 mM (inactive).
Take `C=C[C@H]1CN2CC[C@H]1C[C@@H]2[C@@H](O)c1ccnc2ccc(OC)cc12`: the Kd was > 4 mM (inactive).
As for `CC(=O)NC12CC3CC(CC(O)(C3)C1)C2`, the Kd is > 4 mM (inactive).
In the case of `NC(=O)CSc1nc2ncnc(N)c2[nH]1` it was > 4 mM (inactive); in that of `Nc1nc(SCc2ccc3c(c2)OCO3)n[nH]1`, > 4 mM (inactive).
The result for `CC1(C)CC2C1CC[C@]1(C)CCC3C(C(=O)O)CC(=O)O[C@@]32C1` (stereo partly specified) reads > 4 mM (inactive); that for `Cc1ccc(CN2C3=NC(=O)CN3c3ccccc32)cc1`, > 4 mM (inactive); that for `CC(=O)Nc1nnc(-c2ccncc2)s1`, > 4 mM (inactive).
The result for `O=C(c1ccccc1)N1CCOCC1` reads > 4 mM (inactive); that for `CCC(CCC(C)[C@H]1CCC2C3CC=C4C[C@@H](O)CC[C@]4(C)C3CC[C@@]21C)C(C)C` (stereo partly specified), > 4 mM (inactive).
Turning to `Nc1nc2ncc(CNc3ccc(C(=O)N[C@@H](CCC(=O)O)C(=O)O)cc3)nc2c(=O)[nH]1`, the Kd is > 4 mM (inactive).
On to `COC(=O)c1noc(C)c1C(C)=O`, for which the Kd was > 4 mM (inactive).
For `CSc1nc2[nH]ncc2c(=O)[nH]1`, the Kd is > 4 mM (inactive).
As to `O=P(c1ccccc1)(c1ccccc1)C1CCOCC1`, the Kd is > 4 mM (inactive).
As for `Oc1ccc(-n2cncn2)cc1`, the Kd was > 4 mM (inactive).
In the case of `CCOC(=O)c1csc(C2COc3ccccc3O2)n1` (stereo unspecified), the Kd was > 4 mM (inactive).
The result for `NC(=O)Cn1cnc(-c2ccc(F)cc2)c1` reads > 4 mM (inactive); that for `CCc1noc(C)c1C(=O)N1CCCC1`, > 4 mM (inactive).
In the case of `CC(=O)Nc1ccc(NC(=O)c2ccncc2)cc1` it was > 4 mM (inactive).
With `CC(=O)Nc1ccc(-c2nc(C)c(C(C)=O)n2O)cc1`, the Kd is > 4 mM (inactive).
With `O=S(=O)(O)c1nc2ccccc2[nH]1`, the Kd was > 4 mM (inactive).
Consider `CC(=O)Nc1cccc(-c2nnc(-c3ccccc3)o2)c1`, for which the Kd was > 4 mM (inactive).
In the case of `CC(C)Oc1ccc(NC(N)=O)cc1`, the Kd was > 4 mM (inactive).
Consider `O=C(O)c1cccnc1-c1nc2ccccc2s1`, for which the Kd is > 4 mM (inactive).
Turning to `OC1(c2ccc(Cl)cc2)CCNCC1`, the Kd was > 4 mM (inactive).
Take `O=C(CSC1=NCCS1)N1CCc2ccccc21`: the Kd was > 4 mM (inactive).
In the case of `O=C(O)c1ccccc1N1CCOCC1` it was > 4 mM (inactive); in that of `O=c1[nH]cc(NCc2ccccc2)c(=O)[nH]1`, > 4 mM (inactive); in that of `CSc1cc(C)[nH]c(=O)n1`, > 4 mM (inactive).
In the case of `O=C(NCc1ccccc1)c1cnsn1` it was > 4 mM (inactive).
In the case of `NC(=O)CSc1nnc(-c2ccncc2)o1` it was > 4 mM (inactive); in that of `O=C(OCc1c(Cl)cccc1Cl)c1cnccn1`, > 4 mM (inactive).
`CCOc1cc(S(=O)(=O)n2nc(C)cc2C)ccc1F`: the Kd is > 4 mM (inactive).
`O=C(O)CN1CCN(C2CCCC2)CC1`: the Kd was > 4 mM (inactive).
The result for `Nc1cc(=O)[nH]c(=O)n1-c1ccccc1` reads > 4 mM (inactive); that for `NCc1csc(-c2cccs2)n1`, > 4 mM (inactive).
For the compound `O=C(NCc1ccco1)c1cccc(F)c1`, the Kd is > 4 mM (inactive).
On to `O=C1CCC(=O)N1c1cccc([N+](=O)[O-])c1`, for which the Kd was > 4 mM (inactive).
With `CS(=O)(=O)Nc1ccc(C(=O)N2CCCCC2)cc1`, the Kd was > 4 mM (inactive).
In the case of `Cc1cccnc1NC1=NCC(C)S1` (stereo unspecified) it was > 4 mM (inactive); in that of `Cc1c(C(=O)OC(C)C)[nH]c2c1C(=O)CCC2`, > 4 mM (inactive); in that of `CCC(=O)Nc1cc(C(C)C)c(O)cc1C`, > 4 mM (inactive).
Consider `CN(C)CC(O)C1CCOC(C)(C)C1` (stereo unspecified), for which the Kd was > 4 mM (inactive).
